The subject of assay [1] is TNFα production in LPS-stimulated human monocytes. In words: Cot Monocyte TNFα Cell Based Assay. The conditions noted are these: Homo sapiens, Monocyte, read-out: EC50 TNF. Summed up: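 Human monocytes (5,000 cells/well) pretreated with compound for 1 hour at 37° C (0.5% DMSO), then stimulated with 50 pg/ml LPS for 4 hours. Total TNFα measured by TR-FRET after overnight antibody incubation at room temp, expressed as percent of control between unstimulated and stimulated cells.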

Assay [2] addresses T1, human Cot catalytic domain (30-397 amino acids) (Homo sapiens, UniProt P41279).
T1 construct: Purified recombinant human Cot catalytic domain (30-397 amino acids) was purchased from Cama Biosciences; purchased Cama Biosciences (so in the source)
Nature of the assay: High Throughput Cot Biochemical Assay (KinEASE TR-FRET). The note with it: read-out: IC50 HTRF. A digest of the protocol: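 Recombinant human Cot catalytic domain (aa 30-397), 5 nM, with 1 μM STK3 peptide and 400 μM ATP in MOPS pH 7.0 buffer with MgOAc, DTT, BSA, NP-40, glycerol, 0.1% DMSO. Phosphorylated XL665-peptide detected by Eu-[…] antibody TR-FRET.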
On the technique in general: TR-FRET usually uses a lanthanide donor and a delayed reading to cut background.

Setting [3] is: TNFα in LPS-stimulated human monocytes.
Setting [4] is: Cot biochemical HTRF (KinEASE TR-FRET) assay.
[5] abbreviates: LPS-stimulated human monocytes, TNFα TR-FRET.
Where [6] appears, read: Cot KinEASE TR-FRET, 400 μM ATP.
Where [7] appears, read: Cot KinEASE TR-FRET (HTRF) biochemical assay, 400 μM ATP.

Like-named read-outs stand apart in the source and are kept apart here. Bounds are passed on as bounds.

What is called EC50 is the concentration giving half of the maximal effect. The IC50 is the concentration that gives 50% inhibition.

T1 sequence (P41279 30-397): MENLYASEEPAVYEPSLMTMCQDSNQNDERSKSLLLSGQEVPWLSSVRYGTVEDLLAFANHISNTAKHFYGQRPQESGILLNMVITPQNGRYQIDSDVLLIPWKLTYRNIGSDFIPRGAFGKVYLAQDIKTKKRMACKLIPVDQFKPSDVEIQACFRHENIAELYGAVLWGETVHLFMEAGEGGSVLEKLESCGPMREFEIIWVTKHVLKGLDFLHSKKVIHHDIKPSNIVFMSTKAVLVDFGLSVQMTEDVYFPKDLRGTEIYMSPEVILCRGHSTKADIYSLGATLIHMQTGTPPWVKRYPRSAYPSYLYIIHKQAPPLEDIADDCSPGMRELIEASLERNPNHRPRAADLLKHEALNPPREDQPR

For `N#Cc1cnc2c(Cl)cc(NC(c3ccccc3)c3nn[nH]c3CN3CCOCC3)cc2c1Nc1ccc(F)c(Cl)c1` (centres unmarked) [Example 519, 8-chloro-4-((3-chloro-4-fluorophenyl)amino)-6-(((5-(morpholinomethyl)-1H-1,2,3-triazol-4-yl)(phenyl)methyl)amino) quinoline-3-carbonitrile], the EC50 in assay [1] (setting [3]) was 3.15 µM. Also, the IC50 in assay [2] (setting [4]) stood at 0.301 µM.
`N#CCC[C@@H](Nc1c(C#N)cnc2c(C#N)cc(N[C@H](c3cn(C4CC4)nn3)c3ccccc3Cl)cc12)c1ccccc1` [Example 945, 6-(((S)-(2-chlorophenyl)(1-cyclopropyl-1H-1,2,3-triazol-4-yl)methyl)amino)-4-(((R)-3-cyano-1-phenylpropyl)amino)quinoline-3,8-dicarbonitrile]: the EC50 in assay [1] (setting [5]) was determined as 0.029 µM. The IC50 in assay [2] (setting [6]) came to 0.002 µM.
In the case of `CC(C)(C)CNc1c(C#N)cnc2c(C#N)cc(N[C@@H](c3ccccc3Cl)c3nnn(C4(C)CC4)c3F)cc12` [Example 1159, (S)-6-(((2-chlorophenyl)(5-fluoro-1-(1-methylcyclopropyl)-1H-1,2,3-triazol-4-yl)methyl)amino)-4-(neopentylamino)quinoline-3,8-dicarbonitrile], the EC50 in assay [1] (setting [5]) came to 0.421 µM. In addition, in assay [2] (setting [6]), the concentration for half-maximal inhibition (IC50) came out at 0.05 µM.
As to `CC[C@@H](Nc1c(C#N)cnc2c(Cl)cc(NC(c3ccc(F)cc3)c3nn[nH]c3OC)cc12)c1ccccc1` (stereo partly drawn) [Example 434, 8-chloro-6-(((4-fluorophenyl)(5-methoxy-1H-1,2,3-triazol-4-yl)methyl)amino)-4-(((R)-1-phenylpropyl)amino)quinoline-3-carbonitrile], the EC50 in assay [1] (setting [3]) came to 2.38 µM. In assay [2] (setting [4]), the IC50 amounted to 2.76 µM.
On to `C[C@@H](Nc1c(C#N)cnc2c(Cl)cc(N[C@@H](c3ccccc3)c3c[nH]nn3)cc12)c1ccccc1` [Example 656, 8-chloro-6-(((S)-phenyl(1H-1,2,3-triazol-4-yl)methyl)amino)-4-(((R)-1-phenylethyl)amino) quinoline-3-carbonitrile], for which, in assay [1] (setting [3]), the EC50 was determined as 1.82 µM. For the same compound, the IC50 in assay [2] (setting [4]) worked out at 0.039 µM.
Consider `COC(=O)c1cccc([C@H](Nc2cc(Cl)c3ncc(C#N)c(Nc4ccc(F)c(Cl)c4)c3c2)c2cn(C3CCN(C(C)(C)C)CC3)nn2)c1` [Example 728, methyl (S)-3-((1-(1-(tert-butyl)piperidin-4-yl)-1H-1,2,3-triazol-4-yl)((8-chloro-4-((3-chloro-4-fluorophenyl)amino)-3-cyanoquinolin-6-yl)amino)methyl)benzoate], for which the EC50 in assay [1] (setting [3]) worked out at 0.124 µM. Also, in assay [2] (setting [4]), the IC50 is 0.003 µM.
In the case of `Cc1c(-c2cnn(C)c2)cccc1[C@H](Nc1cc(Cl)c2ncc(C#N)c(NCC(C)(C)C)c2c1)c1cn(C2(C(F)(F)F)CC2)nn1` [Example 1097, (S)-8-chloro-6-(((2-methyl-3-(1-methyl-1H-pyrazol-4-yl)phenyl) (1-(1-(trifluoromethyl)cyclopropyl)-1H-1,2,3-triazol-4-yl)methyl)amino)-4-(neopentylamino)quinoline-3-carbonitrile], the EC50 in assay [1] (setting [5]) was determined as 0.166 µM. In assay [2] (setting [6]), the IC50 was determined as 0.009 µM.
With `N#Cc1cnc2c(Cl)cc(N[C@@H](c3ccc(F)cc3)c3cn(-c4ccccc4)nn3)cc2c1Nc1cnc(F)c(F)c1` [Example 408, (S)-8-chloro-4-((5,6-difluoropyridin-3-yl)amino)-6-(((4-fluorophenyl) (1-phenyl-1H-1,2,3-triazol-4-yl)methyl)amino)quinoline-3-carbonitrile], in assay [1] (setting [3]), the EC50 came to 0.779 µM. In assay [2] (setting [4]), the 50% inhibitory concentration (IC50) worked out at 0.041 µM.
As for `Cc1c(C#N)cccc1[C@H](Nc1cc(C#N)c2ncc(C#N)c(NCC(C)(C)C)c2c1)c1cn(C(CF)CF)nn1` [Example 1149, (S)-6-(((3-cyano-2-methylphenyl)(1-(1,3-difluoropropan-2-yl)-1H-1,2,3-triazol-4-yl)methyl)amino)-4-(neopentylamino)quinoline-3,8-dicarbonitrile], in assay [1] (setting [5]), the EC50 worked out at 0.045 µM. For the same compound, the IC50 in assay [2] (setting [6]) stood at 0.004 µM.
Consider `Cc1cc(C#N)ccc1[C@H](Nc1cc(Cl)c2ncc(C#N)c(NCC(C)(C)C)c2c1)c1cn(C2(C(F)F)CC2)nn1` [Example 1098, (S)-8-chloro-6-(((4-cyano-2-methylphenyl)(1-(1-(difluoromethyl)cyclopropyl)-1H-1,2,3-triazol-4-yl)methyl)amino)-4-(neopentylamino)quinoline-3-carbonitrile], for which, in assay [1] (setting [5]), the concentration giving a half-maximal response (EC50) was found to be 0.073 µM. In assay [2] (setting [6]), the IC50 turned out to be 0.023 µM.
On to `[2H][C@](Nc1cc(Cl)c2ncc(C#N)c(Nc3cnc(F)c(F)c3)c2c1)(c1ccc(F)cc1)c1cn(CF)nn1` [Compound 44], for which the EC50 in assay [1] (setting [3]) amounted to 0.902 µM. Also, in assay [2] (setting [7]), the IC50 was 0.053 µM.
As to `[2H][C@](Nc1cc(-c2cnco2)c2ncc(C#N)c(NCC(C)(C)C)c2c1)(c1ccc(F)cc1)c1cn(C2CC2)nn1` [Example 63, (S)-6-(((1-cyclopropyl-1H-1,2,3-triazol-4-yl)(4-fluorophenyl)methyl-d)amino)-4-(neopentylamino)-8-(oxazol-5-yl)quinoline-3-carbonitrile], in assay [1] (setting [3]), the EC50 is more than 1 µM. Further, the IC50 in assay [2] (setting [7]) was 0.213 µM.
For the compound `CC(C)(C)CNc1c(C#N)cnc2c(C#N)cc(N[C@H](c3cn(C4(C#N)CC4)nn3)c3cccc(C#N)c3Cl)cc12` [Example 1027, (S)-6-(((2-chloro-3-cyanophenyl)(1-(1-cyanocyclopropyl)-1H-1,2,3-triazol-4-yl)methyl)amino)-4-(neopentylamino)quinoline-3,8-dicarbonitrile], in assay [1] (setting [5]), the EC50 amounted to 0.141 µM. Also, the IC50 in assay [2] (setting [6]) was 0.004 µM.
`CC[C@@H](Nc1c(C#N)cnc2c(Cl)cc(N[C@@H](c3cccc(C(=O)N(C)C)c3)c3c[nH]nn3)cc12)c1ccccc1` [Example 598, 3-((S)-((8-chloro-3-cyano-4-(((R)-1-phenylpropyl)amino)quinolin-6-yl)amino)(1H-1,2,3-triazol-4-yl)methyl)-N,N-dimethylbenzamide]: the EC50 in assay [1] (setting [3]) was found to be 0.418 µM. For the same compound, the IC50 in assay [2] (setting [4]) was determined as 0.004 µM.
For `CC[C@@H](Nc1c(C#N)cnc2c(Cl)cc(N[C@@H](c3ccccc3)c3c[nH]nn3)cc12)c1ccccc1` [Example 627, 8-chloro-6-(((S)-phenyl(1H-1,2,3-triazol-4-yl)methyl)amino)-4-(((R)-1-phenylpropyl)amino) quinoline-3-carbonitrile], the EC50 in assay [1] (setting [3]) was found to be 0.456 µM. Moreover, the IC50 in assay [2] (setting [4]) stood at 0.016 µM.
Consider `CC1(Nc2c(C#N)cnc3c(Cl)cc(N[C@@H](c4ccccc4)c4cn(C5CCN(C(C)(C)C)CC5)nn4)cc23)CCCCCC1` [Example 615, (S)-6-(((1-(1-(tert-butyl)piperidin-4-yl)-1H-1,2,3-4-yl)(phenyl)methyl)amino)-8-chloro-4-((1-methylcycloheptyl)amino) quinoline-3-carbonitrile], for which, in assay [1] (setting [3]), the EC50 turned out to be 0.719 µM. Also, the IC50 in assay [2] (setting [4]) was determined as 0.141 µM.
With `CC(C)n1cc([C@@H](Nc2cc(Cl)c3ncc(C#N)c(Nc4ccc(F)c(Cl)c4)c3c2)c2cccc(CNCCN(C)C)c2)nn1` [Example 711, (S)-8-chloro-4-((3-chloro-4-fluorophenyl)amino)-6-(((3-(((2-(dimethylamino)ethyl)amino)methyl)phenyl)(1-isopropyl-1H-1,2,3-triazol-4-yl)methyl)amino)quinoline-3-carbonitrile], the EC50 in assay [1] (setting [3]) is more than 10 µM. For the same compound, in assay [2] (setting [4]), the IC50 was found to be 0.046 µM.
Regarding `Cc1c(-c2cccnc2)cccc1[C@H](Nc1cc(Cl)c2ncc(C#N)c(NCC(C)(C)C)c2c1)c1cn(C2(C(F)(F)F)CC2)nn1` [Example 1096, (S)-8-chloro-6-(((2-methyl-3-(pyridin-3-yl)phenyl)(1-(1-(trifluoromethyl)cyclopropyl)-1H-1,2,3-triazol-4-yl)methyl)amino)-4-(neopentylamino)quinoline-3-carbonitrile], the EC50 in assay [1] (setting [5]) came out at 0.262 µM. In addition, the IC50 in assay [2] (setting [6]) stood at 0.01 µM.
As to `CC(C)(C)N1CCC(n2cc([C@@H](Nc3cc(Cl)c4ncc(C#N)c(Nc5ccc(Cl)cc5)c4c3)c3ccc(Cl)cc3)nn2)CC1` [Example 740, (S)-6-(((1-(1-(tert-butyl)piperidin-4-yl)-1H-1,2,3-triazol-4-yl)(4-chlorophenyl)methyl)amino)-8-chloro-4-((4-chlorophenyl)amino)quinoline-3-carbonitrile], the EC50 in assay [1] (setting [3]) is 5.55 µM. The IC50 in assay [2] (setting [4]) came to 0.244 µM.
`CNC(=O)c1cccc([C@H](Nc2cc(C#N)c3ncc(C#N)c(NCC(C)(C)C)c3c2)c2cn(C3CC3)nn2)c1` [Example 55, (S)-3-((1-cyclopropyl-1H-1,2,3-triazol-4-yl) ((3,8-dicyano-4-(neopentylamino)quinolin-6-yl)amino)methyl)-N-methylbenzamide]: the EC50 in assay [1] (setting [3]) came to 0.414 µM. In addition, the IC50 in assay [2] (setting [7]) was found to be 0.002 µM.
With `[2H][C@](Nc1cc(Cl)c2ncc(C#N)c(NCCc3nccs3)c2c1)(c1ccc(F)cc1)c1cn(C2CC2)nn1` [Example 147, (S)-8-chloro-6-(((1-cyclopropyl-1H-1,2,3-triazol-4-yl)(4-fluorophenyl)methyl-d)amino)-4-((2-(thiazol-2-yl)ethyl)amino) quinoline-3-carbonitrile], the EC50 in assay [1] (setting [3]) was determined as 3.61 µM. In assay [2] (setting [7]), the IC50 worked out at 0.254 µM.
For the compound `CC(=O)N(C)c1cccc([C@H](Nc2cc(Br)c3ncc(C#N)c(NCC(C)(C)C)c3c2)c2cn(C3CC3)nn2)c1` [Example 78, (S)-N-(3-(((8-bromo-3-cyano-4-(neopentylamino)quinolin-6-yl)amino) (1-cyclopropyl-1H-1,2,3-triazol-4-yl)methyl)phenyl)-N-methylacetamide], in assay [1] (setting [3]), the EC50 is 0.436 µM. Further, the IC50 in assay [2] (setting [7]) came to 0.005 µM.

The values above are taken from US10316017B2, “COT modulators and methods of use thereof” (Gilead Sciences, Inc., priority 2015, dated 2019).
